US12503432B2, “Ionizable lipids for nucleic acid delivery” (Global Life Sciences Solutions Canada ULC, priority 2019, dated 2025)

How the values were obtained:
C57BL/6 mice = assay: In vivo delivery of EPO-encoded mRNA LNP via intravenous route, serum EPO ELISA; design: key to EPO Protein expression: IV in mice: *: The number of asterix symbols indicates protein expression levels interpreted by the inventors from quantitative data; **: The number of asterix symbols indicates protein expression levels interpreted by the inventors from quantitative data; ***: The number of asterix symbols indicates protein expression levels interpreted by the inventors from quantitative data; ****: The number of asterix symbols indicates protein expression levels interpreted by the inventors from quantitative data; *****: The number of asterix symbols indicates protein expression levels interpreted by the inventors from quantitative data; *******: The number of asterix symbols indicates protein expression levels interpreted by the inventors from quantitative data; conditions: for EPO Protein expression: IV in mice: qualitative grade interpreted from quantitative data
Excerpt: Lipid Nanoparticles with the composition IL/DSPC/Cholesterol/PEG-DMG2000 (LM 02—see Table 3) were used to encapsulate recombinant human erythropoietin (EPO) encoded mRNA with 5-moU modifications [TriLink CleanCapo 5-moU EPO mRNA L7201]. To create the LNP, lipid mix in ethanol was microfluidically mixed with a low PH buffered solution of 5-moU EPO mRNA mixer at an N/P ratio of 6 using a NanoAssemblr® Ignite™ microfluidic mixer. The microfluidically mixed particles were downstream processed using Amicon® ultra 15 10 kDa MWCO units (EMD Millipore) filtration technique. The RNA loaded lipid particles were then characterized for size, PDI and Encapsulation Efficiency (EE). Size and PDI were measured using dynamic light scattering techniques described above, and nucleic acid encapsulation efficiency was calculated using a Quant-iT RiboGreen RNA assay as described supra, modified to use hEPO mNA as the standard instead if the standard RNA in the kit. The hydrodynamic diameter of these mRNA-LNPs was ˜70 nm with a PDI in the range of 0.02 to 0.1 and an encapsulation efficiency of ˜97.8%.
Animals were handled according to the Institutional Animal Care and Use Committee ethics protocols. For experiments, 6-8 week old C57BL/6 mice were purchased from Envigo (South Kent, WA, USA). For in vivo activity, female C57BL/6 mice were treated intravenously with EPO mRNA LNPs at specified dosages of 0.5-3 mg/Kg. Samples of 50-75 μL of blood were collected 6 h post administration via saphenous vein, and at regular time intervals of 24 h or 48 h.
After harvest, blood was immediately prepared to produce serum samples using standard techniques, and stored at −80 degrees C. Briefly, after collection, the blood was allowed to clot at room temperature for 15-30 minutes. The clot was removed by centrifuging the tubes at 1000-2000×g for 10 min at 4 degrees Celsius. The clear golden-yellow color supernatant was carefully removed and transferred to sterile screw-capped clear polypropylene tubes on ice. The serum was then stored, if necessary, at −80° C. until analysis.
Samples were thawed, then analyzed at appropriate dilutions for EPO protein expression and for cytokine/chemokine levels. The total serum EPO levels were evaluated using Quantikine® IVD EPO ELISA kit (Bio-Techne, Minneapolis, MN, USA).
Following i.v administration of a 0.5 mg/Kg dose of recombinant human EPO-encoded mRNA LNPs containing ionizable lipid MC3, PNI 121 or PNI 123 using the LM02 composition at N/P 6, EPO expression levels at 6 h (upper, FIG. 6) and at 24 h (lower, FIG. 6) in C56BL/6 mice were examined; hEPO protein was measured using Quantikine® IVD® ELISA Human Erythropoietin Immunoassay protocol.

[1] = LNP characterization: size and PDI by dynamic light scattering, mRNA encapsulation efficiency by RiboGreen assay; format: physicochemical
Description: Particle sizes and “polydispersity index” (PDI) of the lipid particle were measured by dynamic light scattering (DLS). PDI indicates the width of the particle distribution. This is a parameter calculated from a cumulative analysis of the (DLS)-measured intensity autocorrelation function assuming a single particle size mode and a single exponential fit to the autocorrelation function. […] The particles produced by mechanical micromixers such as the NanoAssemblr® Spark™ and NanoAssemblr® Benchtop (Precision NanoSystems Inc.) are substantially homogeneous in size assuming all other variables are neutral. A lower PDI indicates a more homogenous population of lipid particles. The Spark™ instrument is used in a screening setting to identify the lead compositions. Once the composition is selected, the lipid particle can be fine-tuned using the NanoAssemblr® Benchtop. Once the process parameters Flow Rate Ratio and Total Flow Rate is identified for the specific nanoparticle composition, the nanoparticle technology can be scaled up using the same process parameter values.
Lipid particles were also manufactured by a larger microfluidic mixer instrument, the NanoAssemblr® Ignite™ for testing. Briefly, 350 μL of mRNA was diluted using 100 mM sodium acetate buffer to the required concentration of 0.2 to 0.3 mg/mL. Lipid particle samples were then prepared by running both fluids, namely, nucleic acids in aqueous solvent and Lipid Mix in ethanol at a flow ratio of 3:1 and at a total flow rate of 12 ml/min in the microfluidic mixer. Following mixing in the microfluidic device, the post cartridge lipid nucleic acid particle sample was diluted into RNAse free tubes containing three to 40 volumes of phosphate buffered saline (PBS), pH 7.4. Ethanol was finally removed through dialysis in PBS, pH 7, or using Amicon™ centrifugal filters (Millipore, USA) at 3000 RPM, or using TFF systems. Once the required concentration was achieved, the lipid nucleic acid particles were filter sterilized using 0.2 μm filters in aseptic conditions. Final encapsulation efficiency was measured by the Ribogreen™ assay. Quant-iT™ RiboGreen® RNA Reagent and Kit (Invitrogen) following manufacturer directions.
Messenger RNA or plasmid nucleic acid therapeutic (NAT) as described below, was diluted using sodium acetate buffer to the required concentration. Lipid nucleic acid particle (LNAP) samples were then prepared by running both fluids using the NanoAssemblr® Spark instrument. Briefly, […] of nucleic acids in 100 mM sodium acetate buffer in a total volume of 32 μL was mixed with 16 μL of 37.5 mM lipid mix solution as required by the N/P ratios (4, 6, or 10 in illustrated examples). The microfluidically mixed lipid nucleic acid particles (LNAP) made in the instrument were immediately diluted down with 48 μL Ca++ and Mg++ free 1× PBS at pH 7.4 in the aqueous output well. These LNAP were immediately collected into microcentrifuge tubes containing 96 μL of the same buffer at pH 7.4. Encapsulation efficiency was measured by a modified Ribogreen™ assay (Quanti-iT RiboGreen™ RNA assay kit, Fisher). This information was used to establish the desired dosage.
After the lipid particles were made as described in Example 17, particle size (hydrodynamic diameter of the particles) was determined by Dynamic Light Scattering (DLS) using a ZetaSizer™ Nano ZS™ (Malvern Instruments, UK). He/Ne laser of 633 nm wavelength was used as the light source. Data were measured from the scattered intensity data conducted in backscattering detection mode (measurement angle=173). Measurements were an average of 10 runs of two cycles each per sample. Z-Average size was reported as the particle size, and is defined as the harmonic intensity averaged particle diameter. These LNP characteristics, as well as the results of the mRNA encapsulation efficiency for various Lipid Mixes are also described in the application are shown in Tables 4, 5 and 6. […]

[2] = 5-moU EPO encoded LNPs, IL:DSPC:cholesterol:DMG-PEG (50:10:38.5:1.5), N/P 6
[3] = OVA encoded LNPs, payload WT OVA, LM02, N/P 8
[4] = Table 4 LNPs, payload and lipid mix not stated
[5] = OVA encoded LNPs, payload 5-moU OVA, LM02, N/P 8

Compound | EPO Protein expression: IV in mice (C57BL/6 mice) | Diameter (Z. ave, nm) [1, 2] | Encapsulation Efficiency (%) [1, 2] | Polydispersity Index (PDI) [1, 2] | Diameter (Z. ave, nm) [1, 3] | Encapsulation Efficiency (%) [1, 3] | Polydispersity Index (PDI) [1, 3] | Diameter (Z. ave, nm) [1, 4] | Encapsulation Efficiency (%) [1, 4] | Polydispersity Index (PDI) [1, 4] | delivering hEPO and expressing hEPO in vivo (C57BL/6 mice; i.v., 1 and 3 mg/Kg, LM02, N/P 6, 6 h and 24 h, FIG. 7) | serum rhEPO expression level (C57BL/6 mice; i.v., 0.5 mg/Kg, FIG. 8) | Diameter (Z. ave, nm) [1, 5] | Encapsulation Efficiency (%) [1, 5] | Polydispersity Index (PDI) [1, 5]
CC/C=C\CC1C(CC(=O)OCC(COCCCCCCCC/C=C\C/C=C\CCCCC)OCCCCCCCC/C=C\C/C=C\CCCCC)CCC1OC(=O)CCCN(C)C (stereo not shown) [PNI 101] | ** | 97.7 nm | 93.4% | 0.08 | 93.2 nm | 98.4% | 0.09 | 74.10 nm | 93.0% | 0.156 |  |  |  |  | 
CC/C=C\CC1C(CC(=O)OCC(COCCCCCCCC/C=C\C/C=C\CCCCC)OCCCCCCCC/C=C\C/C=C\CCCCC)CCC1OC(=O)C1(C)CCN(C)CC1 (stereo not shown) [PNI 123] | *** | 76.6 nm | 97.3% | 0.04 | 96.5 nm | 76.1% | 0.03 | 124.7 nm | 60.1% | 0.054 | performed very well against MC3 LNP |  |  |  | 
CC/C=C\CC1C(CC(=O)OCC(COCCCCCCCC/C=C\C/C=C\CCCCC)OCCCCCCCC/C=C\C/C=C\CCCCC)CCC1OC(=O)C1CCN(C)CC1 (stereo not shown) [PNI 132] | *** | 70.3 nm | 98.2% | 0.04 | 82.6 nm | 97.1% | 0.07 | 74.5 nm | 98.2% | 0.06 |  |  |  |  | 
CC/C=C\CC1C(CC(=O)OC(CCCCCCCCC2CC2CCCCCCCC)CCCCCCCCC2CC2CCCCCCCC)CCC1OC(=O)CCCN(C)C (stereo not shown) [PNI 516] | **** | 69.0 nm | 98.7% | 0.02 | 75.9 nm | 98.6% | 0.02 | 68.5 nm | 98.7% | 0.12 |  | on par with MC3 | 76.5 nm | 98.2% | 0.04
CC/C=C\CC1C(CC(=O)OCC(COCCCCCCCC/C=C\C/C=C\CCCCC)OCCCCCCCC/C=C\C/C=C\CCCCC)CCC1OC(=O)CCCN(CC)CC (stereo not shown) [PNI 542] | *** | 68.5 nm | 98.7% | 0.02 | 74.6 nm | 98.7% | 0.01 | 79.4 nm | 98.8% | 0.04 |  |  |  |  | 
CC/C=C\CC1C(CC(=O)OCC(COCCCCCCCCC2CC2CCCCCCCC)OCCCCCCCCC2CC2CCCCCCCC)CCC1OC(=O)CCN(C)C (stereo not shown) [PNI 544] | *** | 62.3 nm | 97.6% | 0.05 |  |  |  | 51.3 nm | 97.9% | 0.04 |  |  |  |  | 
CCCCCCCCC1CC1CCCCCCCCOCC(COC(=O)CC1CCC(OC(=O)CCCN(C)C)C1CC1CC1CC)OCCCCCCCCC1CC1CCCCCCCC (stereo not shown) [PNI 545] | *** | 59.0 nm | 98.6% | 0.04 |  |  |  | 63.9 nm | 98.4% | 0.07 |  |  |  |  | 
CCCCCCCCC1CC1CCCCCCCCOCC(COC(=O)CC1CCC(OC(=O)CCN(C)C)C1CC1CC1CC)OCCCCCCCCC1CC1CCCCCCCC (stereo not shown) [PNI 546] | * | 56.9 nm | 96.3% | 0.09 |  |  |  | 64.0 nm | 96.3% | 0.03 |  |  |  |  | 
